Test results taken from patent US12268676B2, “Antiviral applications of picolinic acid and its derivatives” (INDIAN INSTITUTE OF SCIENCE, priority 2021, dated 2025).
Where a name gives a salt, the structure may show the parent alone.

Assays:
[1] = test system: pseudotyped SARS CoV-2 particles; experiment: microbe, parasite or virus in culture; format: cell-based; conditions: Severe acute respiratory syndrome coronavirus 2; read-out: inhibition of pseudotyped SARS CoV-2 virus entry
[2] = test system: R18 labelled PR8 WT virus; experiment: Influenza virus membrane fusion assay (R18 fluorescence); format: cell-based, Influenza A virus; conditions: 90 min
[3] = test system: SARS-CoV-2; experiment: SARS CoV-2 infection studies in the hamster model; format: in vivo, Syrian golden hamsters; conditions: CQ dosed therapeutically

CN(C)C(=O)COC(=O)Cc1ccc(OC(=O)c2ccc(NC(=N)N)cc2)cc1 [CM, Camostat mesylate, reference compound]
inhibition at 500 µM [1]: 60%

CCN(CC)CCCC(C)Nc1ccnc2cc(Cl)ccc12 (centres unmarked) [CQ, Chloroquine, reference compound]
virus-entry associated increase in fluorescence intensity ([2]; 10 μM CQ): able to inhibit | inhibition at 10 µM [1]: 90% | lung viral loads reduced by [3]: ~1 log

Cl.N [NH4Cl, ammonium chloride]
virus-entry associated increase in fluorescence intensity ([2]; 10 μM NH4Cl): able to inhibit
